Patent US9604933B2, “Pyrazolochalcones as potential anticancer agents” (COUNCIL OF SCIENTIFIC AND INDUSTRIAL RESEARCH, priority 2013, dated 2017)
Read-outs that look alike come from different tables or passages of the source.

Tests used:
[1] = test system: RPMI-8226; assay: NCI SRB cytotoxicity, leukemia RPMI-8226; type: cell-based; conditions: Homo sapiens, 48 h exposure
Method: (§1) The pyrazolochalcones (7e, 8e, 10e, 11e, 12e, 13e and 8f) have been tested against fifty nine human tumor cell lines derived from nine cancer types (leukemia, non-small cell lung cancer, colon cancer, CNS cancer, melanoma, ovarian cancer, renal cancer, prostate cancer and breast cancer) as per the NCI protocol. For each compound, dose response curves for individual cell lines have been measured at a minimum of five concentrations at 10 fold dilutions. A protocol of 48 h continuous drug exposure has been used, and a sulforhodamine B (SRB) protein assay has been used to estimate cell viability or growth. The concentration for 50% cell growth inhibition (GI50), 50% cell death (LC50, 50% growth) and total cell growth inhibition (TGI, 0% growth) values were tabulated (Table-1). DMSO was used as control to calculate the values of GI50, LC50 and TGI. The compounds 7e, 8e, 10e, 11e, 12e, 13e and 8f has been evaluated for their in vitro cytotoxicity in […] cell lines from nine human cancer types of leukemia (K-562, SR), non-small cell lung (Hop-62, NCI-H226, NCI-H522), colon (HCT-116, HCT-15, HCC-2998), CNS (SF-539), melanoma (SK-MEL-5, UACC-62, M14), ovarian (IGROV1), renal (A498), prostate (PC3) and breast (BT-549, MDA-MB-435, HS578T) origin. The results are expressed as percent of cell growth determined relative to that of untreated control cells (Table 2).

[2] = test system: SR; assay: NCI SRB cytotoxicity, leukemia SR; type: cell-based; conditions: Homo sapiens, 48 h exposure
Method: as §1

[3] = test system: HOP-62; assay: NCI SRB cytotoxicity, non-small cell lung HOP-62; type: cell-based; conditions: Homo sapiens, 48 h exposure
Method: as §1

[4] = test system: NCI-H226; assay: NCI SRB cytotoxicity, non-small cell lung NCI-H226; type: cell-based; conditions: Homo sapiens, 48 h exposure
Method: as §1

[5] = test system: NCIH322M; assay: NCI SRB cytotoxicity, non-small cell lung NCIH322M; type: cell-based; conditions: Homo sapiens, NCI-H322M, 48 h exposure
Method: as §1

[6] = test system: NCI-H522; assay: NCI SRB cytotoxicity, non-small cell lung NCI-H522; type: cell-based; conditions: Homo sapiens, 48 h exposure
Method: as §1

[7] = test system: COLO-205; assay: NCI SRB cytotoxicity, colon COLO-205; type: cell-based; conditions: Homo sapiens, 48 h exposure
Method: as §1

[8] = test system: HCC-2998; assay: NCI SRB cytotoxicity, colon HCC-2998; type: cell-based; conditions: Homo sapiens, 48 h exposure
Method: as §1

[9] = test system: HCT-15; assay: NCI SRB cytotoxicity, colon HCT-15; type: cell-based; conditions: Homo sapiens, 48 h exposure
Method: as §1

[10] = test system: HT29; assay: NCI SRB cytotoxicity, colon HT29; type: cell-based; conditions: Homo sapiens, HT-29, 48 h exposure
Method: as §1

[11] = test system: KM12; assay: NCI SRB cytotoxicity, colon KM12; type: cell-based; conditions: Homo sapiens, 48 h exposure
Method: as §1

[12] = test system: SW-620; assay: NCI SRB cytotoxicity, colon SW-620; type: cell-based; conditions: Homo sapiens, 48 h exposure
Method: as §1

[13] = test system: SF-268; assay: NCI SRB cytotoxicity, CNS SF-268; type: cell-based; conditions: Homo sapiens, 48 h exposure
Method: as §1

[14] = test system: SNB-19; assay: NCI SRB cytotoxicity, CNS SNB-19; type: cell-based; conditions: Homo sapiens, 48 h exposure
Method: as §1

[15] = test system: LOX IMVI; assay: NCI SRB cytotoxicity, melanoma LOX IMVI; type: cell-based; conditions: Homo sapiens, 48 h exposure
Method: as §1

[16] = test system: MALME-3M; assay: NCI SRB cytotoxicity, melanoma MALME-3M; type: cell-based; conditions: Homo sapiens, 48 h exposure
Method: as §1

[17] = test system: M14; assay: NCI SRB cytotoxicity, melanoma M14; type: cell-based; conditions: Homo sapiens, 48 h exposure
Method: as §1

[18] = test system: MDA-MB-435; assay: NCI SRB cytotoxicity, melanoma MDA-MB-435; type: cell-based; conditions: Homo sapiens, Melanoma panel MDA-MB-435, 48 h exposure
Method: as §1

[19] = test system: SK-MEL-28; assay: NCI SRB cytotoxicity, melanoma SK-MEL-28; type: cell-based; conditions: Homo sapiens, 48 h exposure
Method: as §1

[20] = test system: SK-MEL-5; assay: NCI SRB cytotoxicity, melanoma SK-MEL-5; type: cell-based; conditions: Homo sapiens, 48 h exposure
Method: as §1

[21] = test system: IGROV1; assay: NCI SRB cytotoxicity, ovarian IGROV1; type: cell-based; conditions: Homo sapiens, IGROV-1, 48 h exposure
Method: as §1

[22] = test system: OVCAR-4; assay: NCI SRB cytotoxicity, ovarian OVCAR-4; type: cell-based; conditions: Homo sapiens, 48 h exposure
Method: as §1

[23] = test system: OVCAR-5; assay: NCI SRB cytotoxicity, ovarian OVCAR-5; type: cell-based; conditions: Homo sapiens, 48 h exposure
Method: as §1

[24] = test system: OVCAR-8; assay: NCI SRB cytotoxicity, ovarian OVCAR-8; type: cell-based; conditions: Homo sapiens, 48 h exposure
Method: as §1

[25] = test system: SK-OV-3; assay: NCI SRB cytotoxicity, ovarian SK-OV-3; type: cell-based; conditions: Homo sapiens, 48 h exposure
Method: as §1

[26] = test system: 786-0; assay: NCI SRB cytotoxicity, renal 786-0; type: cell-based; conditions: Homo sapiens, 48 h exposure
Method: as §1

[27] = test system: A498; assay: NCI SRB cytotoxicity, renal A498; type: cell-based; conditions: Homo sapiens, 48 h exposure
Method: as §1

[28] = test system: ACHN; assay: NCI SRB cytotoxicity, renal ACHN; type: cell-based; conditions: Homo sapiens, 48 h exposure
Method: as §1

[29] = test system: CAKI-1; assay: NCI SRB cytotoxicity, renal CAKI-1; type: cell-based; conditions: Homo sapiens, 48 h exposure
Method: as §1

[30] = test system: BT-549; assay: NCI SRB cytotoxicity, breast BT-549; type: cell-based; conditions: Homo sapiens, 48 h exposure
Method: as §1

[31] = test system: T-47D; assay: NCI SRB cytotoxicity, breast T-47D; type: cell-based; conditions: Homo sapiens, T47D, 48 h exposure
Method: as §1

[32] = test system: MDA-MB-435; assay: NCI SRB cytotoxicity, breast panel MDA-MB-435; type: cell-based; conditions: Homo sapiens, 48 h exposure
Method: as §1

[33] = test system: CNS; assay: NCI SRB cytotoxicity, CNS panel average; type: cell-based, human; conditions: average of cell lines; for LC50: read-out: Log10 LC50 (concentration in mol/L causing 50% cell death) (converted)
Method: as §1
(§2) Each cancer type represents the average of six to eight different cancer cell lines.

[34] = test system: Breast; assay: NCI SRB cytotoxicity, breast panel average; type: cell-based, human; conditions: average of cell lines; for CC50: read-out: Log10 LC50 (concentration in mol/L causing 50% cell death) (converted)
Method: as §1, §2

[35] = test system: human tumor cell lines; assay: NCI SRB cytotoxicity, all fifty nine human tumor cell lines; type: cell-based; parameters: Log10 TGI mean graph midpoint (MG_MID): unit not given here; conditions: for GI50: Homo sapiens; for cytotoxicity: against cancer cell lines, in words; for LC50: read-out: Log10 LC50 mean graph midpoint (MG_MID) (converted)
Method: as §1
The mean graph midpoint values of Log10 TGI and Log10 LC50 as well as Log10 GI50 for compounds 7e, 8e, 10e, 11e, 12e, 13e and 8f is listed in Table-3. […] The mean graph mid points of Log10 TGI and Log10, LC50 have shown similar pattern to the log10 GI50 mean graph mid points.

[36] = Homo sapiens, read-out: Log10 GI50 (concentration in mol/L causing 50% growth inhibition) (converted)
[37] = across fifty nine cell lines in nine cell panels, read-out: GI50 value range
[38] = against human tumor cell lines, read-out: Log10 GI50 mean graph midpoint (MG_MID) (converted)

Structure (SMILES): COc1ccc(C(=O)/C=C/c2cc(-c3cc(OC)c(OC)c(OC)c3)n[nH]2)cc1OC [8e, (E)-1-(3,4-dimethoxyphenyl)-3-(3-(3,4,5-trimethoxyphenyl)-1H-pyrazol-5-yl)prop-2-en-1-one]
- GI50 [1]: 240 nM
- GI50 [2]: 270 nM
- GI50 [3]: 1440 nM
- GI50 [4]: 1690 nM
- GI50 [5]: 1520 nM
- GI50 [6]: 180 nM
- GI50 [7]: 1740 nM
- GI50 [8]: 2130 nM
- GI50 [9]: 1270 nM
- GI50 [10]: 1620 nM
- GI50 [11]: 1070 nM
- GI50 [12]: 1370 nM
- GI50 [13]: 1820 nM
- GI50 [14]: 1420 nM
- GI50 [15]: 1380 nM
- GI50 [16]: 1990 nM
- GI50 [17]: 1840 nM
- GI50 [18]: 1340 nM
- GI50 [19]: 1780 nM
- GI50 [20]: 1650 nM
- GI50 [21]: 1800 nM
- GI50 [22]: 2690 nM
- GI50 [23]: 1590 nM
- GI50 [24]: 1320 nM
- GI50 [25]: 2790 nM
- GI50 [26]: 1400 nM
- GI50 [27]: 1480 nM
- GI50 [28]: 1660 nM
- GI50 [29]: 2200 nM
- GI50 [30]: 1440 nM
- GI50 [31]: 1630 nM
- GI50 [32]: 750 nM
- GI50 [33, 36]: 1410 nM
- LC50 ([33]; Homo sapiens): 6170 nM
- Log10 TGI (concentration in mol/L causing total growth inhibition (0% growth)) [33]: −5.53 mol/L
- GI50 [34, 36]: 1230 nM
- CC50 ([34]; Homo sapiens): 15100 nM
- Log10 TGI (concentration in mol/L causing total growth inhibition (0% growth)) [34]: −5.47 mol/L
- GI50 [35, 37]: 180 to 29200 nM
- GI50 [35, 38]: 1350 nM
- cytotoxicity [35]: significant cytotoxicity
- Log10 TGI mean graph midpoint (MG_MID) ([35]; against human tumor cell lines): −5.47
- LC50 ([35]; against human tumor cell lines): 10500 nM

Structure (SMILES): COc1cc(-c2cc(/C=C/C(=O)c3ccc4c(c3)OCO4)[nH]n2)cc(OC)c1OC [11e, (E)-1-(benzo[d][1,3]dioxol-5-yl)-3-(3-(3,4,5-trimethoxyphenyl)-1H-pyrazol-5-yl)prop-2-en-1-one]
- GI50 [1]: 510 nM
- GI50 [2]: 550 nM
- GI50 [3]: 2180 nM
- GI50 [4]: 3310 nM
- GI50 [5]: 3010 nM
- GI50 [6]: 1030 nM
- GI50 [7]: 1870 nM
- GI50 [8]: 1950 nM
- GI50 [9]: 2120 nM
- GI50 [10]: 2180 nM
- GI50 [11]: 1760 nM
- GI50 [12]: 2470 nM
- GI50 [13]: 2970 nM
- GI50 [14]: 4300 nM
- GI50 [15]: 1820 nM
- GI50 [16]: 4420 nM
- GI50 [17]: 3860 nM
- GI50 [18]: 2390 nM
- GI50 [19]: 2480 nM
- GI50 [20]: 4510 nM
- GI50 [21]: 5000 nM
- GI50 [22]: 3800 nM
- GI50 [23]: 3370 nM
- GI50 [24]: 2850 nM
- GI50 [25]: 5760 nM
- GI50 [26]: 2330 nM
- GI50 [27]: 2760 nM
- GI50 [28]: 1880 nM
- GI50 [29]: 5510 nM
- GI50 [30]: 2370 nM
- GI50 [31]: 2510 nM
- GI50 [32]: 1400 nM
- LC50 ([33]; Homo sapiens): 63100 nM
- Log10 GI50 (concentration in mol/L causing 50% growth inhibition) [33]: −4.2 mol/L
- Log10 TGI (concentration in mol/L causing total growth inhibition (0% growth)) [33]: −4.83 mol/L
- CC50 ([34]; Homo sapiens): 295000 nM
- Log10 GI50 (concentration in mol/L causing 50% growth inhibition) [34]: −3.53 mol/L
- Log10 TGI (concentration in mol/L causing total growth inhibition (0% growth)) [34]: −4.60 mol/L
- GI50 [35, 37]: 180 to 29200 nM
- GI50 [35, 38]: 2690 nM
- cytotoxicity [35]: significant cytotoxicity
- Log10 TGI mean graph midpoint (MG_MID) ([35]; against human tumor cell lines): −4.77
- LC50 ([35]; against human tumor cell lines): 61700 nM
